Calls of active or inactive are those of the source. The calls are words filed in the database; no cut-off is given here.
What was measured:
Escherichia coli [1] = assay: Antibacterial activity against Escherichia coli MTCC 739 at 100 ug/ml by cup-plate method; type: functional; settings: read-out: DIZ
Escherichia coli [2] = assay: Antibacterial activity against Escherichia coli MTCC 739 at 50 ug/ml by cup-plate method; type: functional; settings: read-out: DIZ
Pseudomonas aeruginosa [3] = assay: Antibacterial activity against Pseudomonas aeruginosa MTCC 2453 at 300 ug/ml by cup-plate method; type: functional; settings: read-out: DIZ
Pseudomonas aeruginosa [4] = assay: Antibacterial activity against Pseudomonas aeruginosa MTCC 2453 at 100 ug/ml by cup-plate method; type: functional; settings: read-out: DIZ
Pseudomonas aeruginosa [5] = assay: Antibacterial activity against Pseudomonas aeruginosa MTCC 2453 at 200 ug/ml by cup-plate method; type: functional; settings: read-out: DIZ
Pseudomonas aeruginosa [6] = assay: Antibacterial activity against Pseudomonas aeruginosa MTCC 2453 at 50 ug/ml by cup-plate method; type: functional; settings: read-out: DIZ
Bacillus subtilis [7] = assay: Antibacterial activity against Bacillus subtilis MTCC 121 at 300 ug/ml by cup plate method; type: functional; settings: read-out: DIZ
Bacillus subtilis [8] = assay: Antibacterial activity against Bacillus subtilis MTCC 121 at 200 ug/ml by cup plate method; type: functional; settings: read-out: DIZ
Bacillus subtilis [9] = assay: Antibacterial activity against Bacillus subtilis MTCC 121 at 50 ug/ml by cup plate method; type: functional; settings: read-out: DIZ
Bacillus subtilis [10] = assay: Antibacterial activity against Bacillus subtilis MTCC 121 at 100 ug/ml by cup plate method; type: functional; settings: read-out: DIZ
Staphylococcus aureus [11] = assay: Antibacterial activity against Staphylococcus aureus MTCC 96 at 300 ug/ml by cup-plate method; type: functional; settings: read-out: DIZ
Staphylococcus aureus [12] = assay: Antibacterial activity against Staphylococcus aureus MTCC 96 at 200 ug/ml by cup-plate method; type: functional; settings: read-out: DIZ
Staphylococcus aureus [13] = assay: Antibacterial activity against Staphylococcus aureus MTCC 96 at 100 ug/ml by cup-plate method; type: functional; settings: read-out: DIZ
Staphylococcus aureus [14] = assay: Antibacterial activity against Staphylococcus aureus MTCC 96 at 50 ug/ml by cup-plate method; type: functional; settings: read-out: DIZ
Escherichia coli [15] = assay: Antibacterial activity against Escherichia coli MTCC 739 by cup-plate method; type: functional, organism-based
Pseudomonas aeruginosa [16] = assay: Antibacterial activity against Pseudomonas aeruginosa MTCC 2453 by cup-plate method; type: functional, organism-based
Bacillus subtilis [17] = assay: Antibacterial activity against Bacillus subtilis MTCC 121 by cup plate method; type: functional, organism-based
Staphylococcus aureus [18] = assay: Antibacterial activity against Staphylococcus aureus MTCC 96 by cup-plate method; type: functional, organism-based
Candida albicans = assay: Antifungal activity against Candida albicans MTCC 227 at 50 to 300 ug/ml by cup-plate method; type: functional, organism-based
Escherichia coli [19] = assay: Antibacterial activity against Escherichia coli MTCC 739 at 300 ug/ml by cup-plate method; type: functional; settings: read-out: DIZ
Escherichia coli [20] = assay: Antibacterial activity against Escherichia coli MTCC 739 at 200 ug/ml by cup-plate method; type: functional; settings: read-out: DIZ

## O=C1N/C(=N\c2ccc(F)c(Cl)c2)S/C1=C\c1ccc(O)cc1
Escherichia coli [1]
  zone of inhibition at 100 µg/mL: 9 mm
Escherichia coli [2]
  zone of inhibition at 50 µg/mL: 8 mm
Pseudomonas aeruginosa [3]
  zone of inhibition at 300 µg/mL: 10 mm
Pseudomonas aeruginosa [4]
  zone of inhibition at 100 µg/mL: 9 mm
Pseudomonas aeruginosa [5]
  zone of inhibition at 200 µg/mL: 10 mm
Pseudomonas aeruginosa [6]
  zone of inhibition at 50 µg/mL: 8 mm
Bacillus subtilis [7]
  zone of inhibition at 300 µg/mL: 11 mm
Bacillus subtilis [8]
  zone of inhibition at 200 µg/mL: 10 mm
Bacillus subtilis [9]
  zone of inhibition at 50 µg/mL: 9 mm
Bacillus subtilis [10]
  zone of inhibition at 100 µg/mL: 10 mm
Staphylococcus aureus [11]
  zone of inhibition at 300 µg/mL: 11 mm
Staphylococcus aureus [12]
  zone of inhibition at 200 µg/mL: 10 mm
Staphylococcus aureus [13]
  zone of inhibition at 100 µg/mL: 10 mm
Staphylococcus aureus [14]
  zone of inhibition at 50 µg/mL: 8 mm
Escherichia coli [15]
  Activity: Dose-dependent effect
Pseudomonas aeruginosa [16]
  Activity: Dose-dependent effect
Bacillus subtilis [17]
  Activity: Dose-dependent effect
Staphylococcus aureus [18]
  Activity: Dose-dependent effect
Candida albicans
  Activity: inactive
Escherichia coli [19]
  zone of inhibition at 300 µg/mL: 10 mm
Escherichia coli [20]
  zone of inhibition at 200 µg/mL: 10 mm

## O=C1N/C(=N\c2ccc(Cl)cc2)S/C1=C\c1ccccc1Cl
Escherichia coli [1]
  zone of inhibition at 100 µg/mL: 9 mm
Escherichia coli [2]
  zone of inhibition at 50 µg/mL: 9 mm
Pseudomonas aeruginosa [3]
  zone of inhibition at 300 µg/mL: 9 mm
Pseudomonas aeruginosa [4]
  zone of inhibition at 100 µg/mL: 9 mm
Pseudomonas aeruginosa [5]
  zone of inhibition at 200 µg/mL: 9 mm
Pseudomonas aeruginosa [6]
  zone of inhibition at 50 µg/mL: 9 mm
Bacillus subtilis [7]
  zone of inhibition at 300 µg/mL: 10 mm
Bacillus subtilis [8]
  zone of inhibition at 200 µg/mL: 9 mm
Bacillus subtilis [9]
  zone of inhibition at 50 µg/mL: 8 mm
Bacillus subtilis [10]
  zone of inhibition at 100 µg/mL: 8 mm
Staphylococcus aureus [11]
  zone of inhibition at 300 µg/mL: 10 mm
Staphylococcus aureus [12]
  zone of inhibition at 200 µg/mL: 9 mm
Staphylococcus aureus [13]
  zone of inhibition at 100 µg/mL: 8 mm
Staphylococcus aureus [14]
  zone of inhibition at 50 µg/mL: 8 mm
Escherichia coli [15]
  Activity: Dose-dependent effect
Pseudomonas aeruginosa [16]
  Activity: Dose-dependent effect
Bacillus subtilis [17]
  Activity: Dose-dependent effect
Staphylococcus aureus [18]
  Activity: Dose-dependent effect
Candida albicans
  Activity: inactive
Escherichia coli [19]
  zone of inhibition at 300 µg/mL: 9 mm
Escherichia coli [20]
  zone of inhibition at 200 µg/mL: 10 mm

## O=C1N/C(=N\c2ccc(F)c(Cl)c2)S/C1=C\c1ccccc1
Escherichia coli [1]
  zone of inhibition at 100 µg/mL: 8 mm
Escherichia coli [2]
  zone of inhibition at 50 µg/mL: 7 mm
Pseudomonas aeruginosa [3]
  zone of inhibition at 300 µg/mL: 12 mm
Pseudomonas aeruginosa [4]
  zone of inhibition at 100 µg/mL: 10 mm
Pseudomonas aeruginosa [5]
  zone of inhibition at 200 µg/mL: 10 mm
Pseudomonas aeruginosa [6]
  zone of inhibition at 50 µg/mL: 8 mm
Bacillus subtilis [7]
  zone of inhibition at 300 µg/mL: 12 mm
Bacillus subtilis [8]
  zone of inhibition at 200 µg/mL: 10 mm
Bacillus subtilis [9]
  zone of inhibition at 50 µg/mL: 6 mm
Bacillus subtilis [10]
  zone of inhibition at 100 µg/mL: 6 mm
Staphylococcus aureus [11]
  zone of inhibition at 300 µg/mL: 10 mm
Staphylococcus aureus [12]
  zone of inhibition at 200 µg/mL: 10 mm
Staphylococcus aureus [13]
  zone of inhibition at 100 µg/mL: 10 mm
Staphylococcus aureus [14]
  zone of inhibition at 50 µg/mL: 6 mm
Escherichia coli [15]
  Activity: Dose-dependent effect
Pseudomonas aeruginosa [16]
  Activity: Dose-dependent effect
Bacillus subtilis [17]
  Activity: Dose-dependent effect
Staphylococcus aureus [18]
  Activity: Dose-dependent effect
Candida albicans
  Activity: inactive
Escherichia coli [19]
  zone of inhibition at 300 µg/mL: 12 mm
Escherichia coli [20]
  zone of inhibition at 200 µg/mL: 11 mm

## COc1cc(/C=C2\S/C(=N/c3ccc(Cl)cc3)NC2=O)ccc1O
Escherichia coli [1]
  zone of inhibition at 100 µg/mL: 8 mm
Escherichia coli [2]
  zone of inhibition at 50 µg/mL: 7 mm
Pseudomonas aeruginosa [3]
  zone of inhibition at 300 µg/mL: 9 mm
Pseudomonas aeruginosa [4]
  zone of inhibition at 100 µg/mL: 7 mm
Pseudomonas aeruginosa [5]
  zone of inhibition at 200 µg/mL: 8 mm
Pseudomonas aeruginosa [6]
  zone of inhibition at 50 µg/mL: 7 mm
Bacillus subtilis [7]
  zone of inhibition at 300 µg/mL: 7 mm
Bacillus subtilis [8]
  zone of inhibition at 200 µg/mL: 7 mm
Bacillus subtilis [9]
  zone of inhibition at 50 µg/mL: 6 mm
Bacillus subtilis [10]
  zone of inhibition at 100 µg/mL: 7 mm
Staphylococcus aureus [11]
  zone of inhibition at 300 µg/mL: 8 mm
Staphylococcus aureus [12]
  zone of inhibition at 200 µg/mL: 7 mm
Staphylococcus aureus [13]
  zone of inhibition at 100 µg/mL: 6 mm
Staphylococcus aureus [14]
  zone of inhibition at 50 µg/mL: 6 mm
Escherichia coli [15]
  Activity: Dose-dependent effect
Pseudomonas aeruginosa [16]
  Activity: Dose-dependent effect
Bacillus subtilis [17]
  Activity: Dose-dependent effect
Staphylococcus aureus [18]
  Activity: Dose-dependent effect
Candida albicans
  Activity: inactive
Escherichia coli [19]
  zone of inhibition at 300 µg/mL: 9 mm
Escherichia coli [20]
  zone of inhibition at 200 µg/mL: 9 mm

## O=C1N/C(=N\c2ccc(Cl)cc2)S/C1=C\c1ccccc1
Escherichia coli [1]
  zone of inhibition at 100 µg/mL: 8 mm
Escherichia coli [2]
  zone of inhibition at 50 µg/mL: 7 mm
Pseudomonas aeruginosa [3]
  zone of inhibition at 300 µg/mL: 11 mm
Pseudomonas aeruginosa [4]
  zone of inhibition at 100 µg/mL: 8 mm
Pseudomonas aeruginosa [5]
  zone of inhibition at 200 µg/mL: 8 mm
Pseudomonas aeruginosa [6]
  zone of inhibition at 50 µg/mL: 8 mm
Bacillus subtilis [7]
  zone of inhibition at 300 µg/mL: 10 mm
Bacillus subtilis [8]
  zone of inhibition at 200 µg/mL: 9 mm
Bacillus subtilis [9]
  zone of inhibition at 50 µg/mL: 5 mm
Bacillus subtilis [10]
  zone of inhibition at 100 µg/mL: 8 mm
Staphylococcus aureus [11]
  zone of inhibition at 300 µg/mL: 10 mm
Staphylococcus aureus [12]
  zone of inhibition at 200 µg/mL: 9 mm
Staphylococcus aureus [13]
  zone of inhibition at 100 µg/mL: 8 mm
Staphylococcus aureus [14]
  zone of inhibition at 50 µg/mL: 5 mm
Escherichia coli [15]
  Activity: Dose-dependent effect
Pseudomonas aeruginosa [16]
  Activity: Dose-dependent effect
Bacillus subtilis [17]
  Activity: Dose-dependent effect
Staphylococcus aureus [18]
  Activity: Dose-dependent effect
Candida albicans
  Activity: inactive
Escherichia coli [19]
  zone of inhibition at 300 µg/mL: 12 mm
Escherichia coli [20]
  zone of inhibition at 200 µg/mL: 10 mm

— ChEMBL document CHEMBL3044899, “Effect of chloro and fluoro groups on the antimicrobial activity of 2,5-disubstituted 4-thiazolidinones: a comparative study” (2012)
